Reference: PubChem BioAssay (NCI)
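A five-concentration, 48-hour dose response in 96-well plates underlies each endpoint, interpolated linearly between surrounding concentrations. TGI is the concentration that stops growth completely.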

What was measured:
Test in all cases: NCI tumour cell line growth inhibition, 48 h
UO-31 renal = tested on: UO-31 renal
ACHN renal = tested on: ACHN renal
SK-MEL-28 melanoma = tested on: SK-MEL-28 melanoma
SR leukemia = tested on: SR leukemia
XF 498 CNS = tested on: XF 498 CNS
HOP-62 NSCLC = tested on: HOP-62 NSCLC
KM20L2 colon = tested on: KM20L2 colon
CAKI-1 renal = tested on: CAKI-1 renal
UACC-62 melanoma = tested on: UACC-62 melanoma
M14 melanoma = tested on: M14 melanoma
LXFL 529 NSCLC = tested on: LXFL 529 NSCLC
M19-MEL melanoma = tested on: M19-MEL melanoma
COLO 205 colon = tested on: COLO 205 colon
HCT-116 colon = tested on: HCT-116 colon
786-0 renal = tested on: 786-0 renal
HOP-18 NSCLC = tested on: HOP-18 NSCLC
EKVX NSCLC = tested on: EKVX NSCLC
RPMI-8226 leukemia = tested on: RPMI-8226 leukemia
MALME-3M melanoma = tested on: MALME-3M melanoma
SK-OV-3 ovarian = tested on: SK-OV-3 ovarian
HCC-2998 colon = tested on: HCC-2998 colon
NCI-H226 lung = tested on: NCI-H226 lung
K-562 leukemia = tested on: K-562 leukemia
OVCAR-5 ovarian = tested on: OVCAR-5 ovarian
KM12 colon = tested on: KM12 colon
SNB-75 CNS = tested on: SNB-75 CNS
A549 NSCLC = tested on: A549 NSCLC
SK-MEL-2 melanoma = tested on: SK-MEL-2 melanoma
HCT-15 colon = tested on: HCT-15 colon
SNB-19 CNS = tested on: SNB-19 CNS
RXF-631 renal = tested on: RXF-631 renal
SK-MEL-5 melanoma = tested on: SK-MEL-5 melanoma
UACC-257 melanoma = tested on: UACC-257 melanoma
RXF 393 renal = tested on: RXF 393 renal
IGROV1 ovarian = tested on: IGROV1 ovarian
LOX IMVI melanoma = tested on: LOX IMVI melanoma
A498 renal = tested on: A498 renal
NCI-H460 lung = tested on: NCI-H460 lung
TK-10 renal = tested on: TK-10 renal
OVCAR-8 ovarian = tested on: OVCAR-8 ovarian
SF-295 CNS = tested on: SF-295 CNS
NCI-H522 lung = tested on: NCI-H522 lung
SF-268 CNS = tested on: SF-268 CNS
U251 CNS = tested on: U251 CNS
HT29 colon = tested on: HT29 colon
HOP-92 NSCLC = tested on: HOP-92 NSCLC
DLD-1 colon = tested on: DLD-1 colon
SF-539 CNS = tested on: SF-539 CNS
OVCAR-4 ovarian = tested on: OVCAR-4 ovarian
MOLT-4 leukemia = tested on: MOLT-4 leukemia
NCI-H23 lung = tested on: NCI-H23 lung
OVCAR-3 ovarian = tested on: OVCAR-3 ovarian
DMS 273 small cell lung = tested on: DMS 273 small cell lung
SN12C renal = tested on: SN12C renal
CCRF-CEM leukemia = tested on: CCRF-CEM leukemia
SW-620 colon = tested on: SW-620 colon
SNB-78 CNS = tested on: SNB-78 CNS
DMS 114 small cell lung = tested on: DMS 114 small cell lung
HL-60(TB) leukemia = tested on: HL-60(TB) leukemia

Oc1ccccc1/C=C/c1csnn1
TGI (UO-31 renal): > 100 µM | TGI (ACHN renal): > 100 µM | TGI (SK-MEL-28 melanoma): > 100 µM | TGI (SR leukemia): > 68 µM | TGI (XF 498 CNS): > 100 µM | TGI (HOP-62 NSCLC): > 100 µM | TGI (KM20L2 colon): > 100 µM | TGI (CAKI-1 renal): > 100 µM | TGI (UACC-62 melanoma): > 100 µM | TGI (M14 melanoma): > 100 µM | TGI (LXFL 529 NSCLC): > 100 µM | TGI (M19-MEL melanoma): > 100 µM | TGI (COLO 205 colon): > 100 µM | TGI (HCT-116 colon): > 100 µM | TGI (786-0 renal): > 31.6 µM | TGI (HOP-18 NSCLC): > 100 µM | TGI (EKVX NSCLC): > 100 µM | TGI (RPMI-8226 leukemia): > 100 µM | TGI (MALME-3M melanoma): > 100 µM | TGI (SK-OV-3 ovarian): > 100 µM | TGI (HCC-2998 colon): > 100 µM | TGI (NCI-H226 lung): > 100 µM | TGI (K-562 leukemia): > 100 µM | TGI (OVCAR-5 ovarian): > 100 µM | TGI (KM12 colon): > 100 µM | TGI (SNB-75 CNS): > 100 µM | TGI (A549 NSCLC): > 100 µM | TGI (SK-MEL-2 melanoma): > 100 µM | TGI (HCT-15 colon): > 94.3 µM | TGI (SNB-19 CNS): > 100 µM | TGI (RXF-631 renal): > 100 µM | TGI (SK-MEL-5 melanoma): > 100 µM | TGI (UACC-257 melanoma): > 100 µM | TGI (RXF 393 renal): > 100 µM | TGI (IGROV1 ovarian): > 100 µM | TGI (LOX IMVI melanoma): 99.1 µM | TGI (A498 renal): > 100 µM | TGI (NCI-H460 lung): > 100 µM | TGI (TK-10 renal): > 100 µM | TGI (OVCAR-8 ovarian): > 100 µM | TGI (SF-295 CNS): > 100 µM | TGI (NCI-H522 lung): > 100 µM | TGI (SF-268 CNS): > 100 µM | TGI (U251 CNS): > 100 µM | TGI (HT29 colon): > 100 µM | TGI (HOP-92 NSCLC): > 100 µM | TGI (DLD-1 colon): > 100 µM | TGI (SF-539 CNS): > 100 µM | TGI (OVCAR-4 ovarian): > 100 µM | TGI (MOLT-4 leukemia): > 100 µM | TGI (NCI-H23 lung): > 100 µM | TGI (OVCAR-3 ovarian): > 100 µM | TGI (DMS 273 small cell lung): > 100 µM | TGI (SN12C renal): > 100 µM | TGI (CCRF-CEM leukemia): > 100 µM | TGI (SW-620 colon): > 100 µM | TGI (SNB-78 CNS): > 100 µM | TGI (DMS 114 small cell lung): > 100 µM | TGI (HL-60(TB) leukemia): 99.7 µM
